In the supplement of paper PMC10307832 one finds relative viability data, which are given here for 5 molecules.

The structures appear in SMILES notation.

One assay relates to 201T. Description: relative viability (nuclei count vs DMSO), 5 days (fraction); higher = more cells survive. As to conditions: first compound 2 µM. The method, boiled down: (§1)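 Lung cancer cell lines in 1536-well plates were dosed by pin tool the day after seeding, either with one drug alone or with a fixed anchor-drug dose plus five library-drug doses (not always all listed) in √10 steps. After 5 days, cells were fixed and their nuclei stained in one step (final 0.05% Triton X-100, 1% formaldehyde, 1 ug/ml Hoechst), then counted on 4× images. Relative viability is the nuclei count in treated wells divided by that in vehicle wells. Values are medians of duplicate plates.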
Consider `COCC1(CO)C(=O)C2CCN1CC2` (configuration not stated) [PRIMA-1MET] + Cc1nc(NC(=O)N2CCC[C@H]2C(N)=O)sc1-c1ccnc(C(C)(C)C(F)(F)F)c1 [Alpelisib] (partner 2 µM), for which the relative viability came to 0.885.
As to `COCC1(CO)C(=O)C2CCN1CC2` (configuration not stated) [PRIMA-1MET] + C[C@@H](Oc1cc(-c2cnn(C3CCNCC3)c2)cnc1N)c1c(Cl)ccc(F)c1Cl [Crizotinib] (partner 1 µM), the relative viability came to 0.901.

Staying with this assay, now noted: first compound 6.325 µM.
Consider `COCC1(CO)C(=O)C2CCN1CC2` (configuration not stated) [PRIMA-1MET] + O=C(CCCCCCC(=O)Nc1ccccc1)NO [Vorinostat] (partner 1 µM), for which the relative viability was determined as 0.991.
On the same count and under the same terms, for `COCC1(CO)C(=O)C2CCN1CC2` (configuration not stated) [PRIMA-1MET] + C[C@]1(O)C[C@@H](c2nc(-c3ccc4ccc(-c5ccccc5)nc4c3)c3c(N)nccn32)C1 [Linsitinib] (partner 1 µM) the value was 1.11; for `COCC1(CO)C(=O)C2CCN1CC2` (configuration not stated) [PRIMA-1MET] + Cc1cc(Nc2cc(N3CCN(C)CC3)nc(Sc3ccc(NC(=O)C4CC4)cc3)n2)n[nH]1 [Tozasertib] (partner 0.1 µM), 0.908; for `COCC1(CO)C(=O)C2CCN1CC2` (configuration not stated) [PRIMA-1MET] + Cc1nc(NC(=O)N2CCC[C@H]2C(N)=O)sc1-c1ccnc(C(C)(C)C(F)(F)F)c1 [Alpelisib] (partner 2 µM), 1.05.
Turning to `COCC1(CO)C(=O)C2CCN1CC2` (configuration not stated) [PRIMA-1MET] + C[C@@H](Oc1cc(-c2cnn(C3CCNCC3)c2)cnc1N)c1c(Cl)ccc(F)c1Cl [Crizotinib] (partner 1 µM), the relative viability was determined as 1.06.

The assay is the same for the next values; noted with them: first compound 20 µM.
Take `COCC1(CO)C(=O)C2CCN1CC2` (configuration not stated) [PRIMA-1MET] + O=C(CCCCCCC(=O)Nc1ccccc1)NO [Vorinostat] (partner 1 µM): the relative viability was determined as 0.98.
The molecule `COCC1(CO)C(=O)C2CCN1CC2` (configuration not stated) [PRIMA-1MET] + C[C@]1(O)C[C@@H](c2nc(-c3ccc4ccc(-c5ccccc5)nc4c3)c3c(N)nccn32)C1 [Linsitinib] (partner 1 µM) yielded a relative viability of 1.
`COCC1(CO)C(=O)C2CCN1CC2` (configuration not stated) [PRIMA-1MET] + Cc1cc(Nc2cc(N3CCN(C)CC3)nc(Sc3ccc(NC(=O)C4CC4)cc3)n2)n[nH]1 [Tozasertib] (partner 0.1 µM) came in with a relative viability of 0.905.
Turning to `COCC1(CO)C(=O)C2CCN1CC2` (configuration not stated) [PRIMA-1MET] + Cc1nc(NC(=O)N2CCC[C@H]2C(N)=O)sc1-c1ccnc(C(C)(C)C(F)(F)F)c1 [Alpelisib] (partner 2 µM), the relative viability was 1.03.
Regarding `COCC1(CO)C(=O)C2CCN1CC2` (configuration not stated) [PRIMA-1MET] + C[C@@H](Oc1cc(-c2cnn(C3CCNCC3)c2)cnc1N)c1c(Cl)ccc(F)c1Cl [Crizotinib] (partner 1 µM), the relative viability came out at 1.04.

Another assay relates to RERF-LC-KJ. The assay is described as above. The note with it: first compound 0.2 µM. The method, boiled down: as §1
In the case of `COCC1(CO)C(=O)C2CCN1CC2` (configuration not stated) [PRIMA-1MET] + O=C(CCCCCCC(=O)Nc1ccccc1)NO [Vorinostat] (partner 1 µM), the relative viability turned out to be 0.817.
On the same count and under the same terms, the figure for `COCC1(CO)C(=O)C2CCN1CC2` (configuration not stated) [PRIMA-1MET] + C[C@]1(O)C[C@@H](c2nc(-c3ccc4ccc(-c5ccccc5)nc4c3)c3c(N)nccn32)C1 [Linsitinib] (partner 1 µM) is 0.961; for `COCC1(CO)C(=O)C2CCN1CC2` (configuration not stated) [PRIMA-1MET] + Cc1cc(Nc2cc(N3CCN(C)CC3)nc(Sc3ccc(NC(=O)C4CC4)cc3)n2)n[nH]1 [Tozasertib] (partner 0.1 µM) it is 0.53; for `COCC1(CO)C(=O)C2CCN1CC2` (configuration not stated) [PRIMA-1MET] + Cc1nc(NC(=O)N2CCC[C@H]2C(N)=O)sc1-c1ccnc(C(C)(C)C(F)(F)F)c1 [Alpelisib] (partner 2 µM) it is 0.797.
Take `COCC1(CO)C(=O)C2CCN1CC2` (configuration not stated) [PRIMA-1MET] + C[C@@H](Oc1cc(-c2cnn(C3CCNCC3)c2)cnc1N)c1c(Cl)ccc(F)c1Cl [Crizotinib] (partner 1 µM): the relative viability was found to be 0.868.

Staying with this assay, now noted: first compound 0.6325 µM.
With `COCC1(CO)C(=O)C2CCN1CC2` (configuration not stated) [PRIMA-1MET] + O=C(CCCCCCC(=O)Nc1ccccc1)NO [Vorinostat] (partner 1 µM), the relative viability came to 0.507.
Same read-out and setting: for `COCC1(CO)C(=O)C2CCN1CC2` (configuration not stated) [PRIMA-1MET] + C[C@]1(O)C[C@@H](c2nc(-c3ccc4ccc(-c5ccccc5)nc4c3)c3c(N)nccn32)C1 [Linsitinib] (partner 1 µM) the value was 0.955.
`COCC1(CO)C(=O)C2CCN1CC2` (configuration not stated) [PRIMA-1MET] + Cc1cc(Nc2cc(N3CCN(C)CC3)nc(Sc3ccc(NC(=O)C4CC4)cc3)n2)n[nH]1 [Tozasertib] (partner 0.1 µM) returned a relative viability of 0.523.
Still for that read-out and setting: for `COCC1(CO)C(=O)C2CCN1CC2` (configuration not stated) [PRIMA-1MET] + Cc1nc(NC(=O)N2CCC[C@H]2C(N)=O)sc1-c1ccnc(C(C)(C)C(F)(F)F)c1 [Alpelisib] (partner 2 µM) the value was 0.835.
Regarding `COCC1(CO)C(=O)C2CCN1CC2` (configuration not stated) [PRIMA-1MET] + C[C@@H](Oc1cc(-c2cnn(C3CCNCC3)c2)cnc1N)c1c(Cl)ccc(F)c1Cl [Crizotinib] (partner 1 µM), the relative viability came out at 0.767.

Still in this assay, the particulars now being: first compound 2 µM.
Take `COCC1(CO)C(=O)C2CCN1CC2` (configuration not stated) [PRIMA-1MET] + O=C(CCCCCCC(=O)Nc1ccccc1)NO [Vorinostat] (partner 1 µM): the relative viability came out at 0.589.
The molecule `COCC1(CO)C(=O)C2CCN1CC2` (configuration not stated) [PRIMA-1MET] + C[C@]1(O)C[C@@H](c2nc(-c3ccc4ccc(-c5ccccc5)nc4c3)c3c(N)nccn32)C1 [Linsitinib] (partner 1 µM) gave a relative viability of 0.832.
In turn, `COCC1(CO)C(=O)C2CCN1CC2` (configuration not stated) [PRIMA-1MET] + Cc1cc(Nc2cc(N3CCN(C)CC3)nc(Sc3ccc(NC(=O)C4CC4)cc3)n2)n[nH]1 [Tozasertib] (partner 0.1 µM) yielded a relative viability of 0.58.
Same read-out and setting: for `COCC1(CO)C(=O)C2CCN1CC2` (configuration not stated) [PRIMA-1MET] + Cc1nc(NC(=O)N2CCC[C@H]2C(N)=O)sc1-c1ccnc(C(C)(C)C(F)(F)F)c1 [Alpelisib] (partner 2 µM) the value was 0.715; for `COCC1(CO)C(=O)C2CCN1CC2` (configuration not stated) [PRIMA-1MET] + C[C@@H](Oc1cc(-c2cnn(C3CCNCC3)c2)cnc1N)c1c(Cl)ccc(F)c1Cl [Crizotinib] (partner 1 µM), 0.86.

Staying with this assay, now noted: first compound 6.325 µM.
Regarding `COCC1(CO)C(=O)C2CCN1CC2` (configuration not stated) [PRIMA-1MET] + O=C(CCCCCCC(=O)Nc1ccccc1)NO [Vorinostat] (partner 1 µM), the relative viability came to 0.911.
As to `COCC1(CO)C(=O)C2CCN1CC2` (configuration not stated) [PRIMA-1MET] + C[C@]1(O)C[C@@H](c2nc(-c3ccc4ccc(-c5ccccc5)nc4c3)c3c(N)nccn32)C1 [Linsitinib] (partner 1 µM), the relative viability was 0.922.
The molecule `COCC1(CO)C(=O)C2CCN1CC2` (configuration not stated) [PRIMA-1MET] + Cc1cc(Nc2cc(N3CCN(C)CC3)nc(Sc3ccc(NC(=O)C4CC4)cc3)n2)n[nH]1 [Tozasertib] (partner 0.1 µM) gave a relative viability of 0.498.
`COCC1(CO)C(=O)C2CCN1CC2` (configuration not stated) [PRIMA-1MET] + Cc1nc(NC(=O)N2CCC[C@H]2C(N)=O)sc1-c1ccnc(C(C)(C)C(F)(F)F)c1 [Alpelisib] (partner 2 µM): the relative viability turned out to be 1.01.
Same read-out and setting: for `COCC1(CO)C(=O)C2CCN1CC2` (configuration not stated) [PRIMA-1MET] + C[C@@H](Oc1cc(-c2cnn(C3CCNCC3)c2)cnc1N)c1c(Cl)ccc(F)c1Cl [Crizotinib] (partner 1 µM) the value was 0.85.
